IC50 data for ten compounds are collected here from ChEMBL document CHEMBL1770145, “Synthesis of 5(6)-dihydro-OSW-1 analogs bearing three kinds of disaccharides linking at 15-hydroxy and their antitumor activities” (Bioorg Med Chem Lett, 2011).

pIC50: −log10 of the molar value.

Assay type in all cases: functional, cell-based
One test concerns BGC-823. The test is described as follows: Cytotoxicity against human BGC823 cells by MTT assay. For orientation: Tetrazolium dyes change colour on reduction, which living cells bring about.
Another test deals with A2780. Kind of test: Cytotoxicity against human A2780 cells by MTT assay.
Another test has as its system KETR3. The test is described as follows: Cytotoxicity against human Ketr3 cells by MTT assay.
For test [1], the system named is Bel-7402. The test is described as follows: Cytotoxicity against human Bel7402 cells by MTT assay.
A further test deals with HCT-8. Kind of test: Cytotoxicity against human HCT8 cells by MTT assay.
In the next test the test system is A549. Kind of test: Cytotoxicity against human A549 cells by MTT assay.
Test [2] relates to MCF7. Kind of test: Cytotoxicity against human MCF7 cells by MTT assay.
Test [3] deals with MCF7. The test is described as follows: Cytotoxicity against human MCF7 cells.
A further test deals with AGS. Kind of test: Cytotoxicity against human AGS cells.
The test system of test [4] is Bel-7402. Kind of test: Cytotoxicity against human Bel7402 cells.

As for `COc1ccc(C(=O)O[C@H]2[C@H](O[C@@H]3[C@@H](OC(C)=O)[C@H](O[C@H]4CC([C@H](C)C(=O)CC[C@@H](C)CO)[C@@]5(C)CC[C@H]6[C@@H](CC[C@H]7C[C@@H](O)CC[C@@]76C)[C@H]45)OC[C@@H]3O)OC[C@@H](O)[C@@H]2O)cc1` (stereo partly specified), the negative logarithm of the IC50 (pIC50) in the test on BGC-823, in the test with A2780, in the test on KETR3, with Bel-7402 [1], in the test with HCT-8 and in the test with A549 was less than 5.00 in each case. This compound had a pIC50 in the test on MCF7 [2] of less than 5.00.
Turning to `C[C@@H]1CC[C@@]2(OC1)O[C@H]1C[C@H]3[C@@H]4CC=C5C[C@@H](O[C@@H]6O[C@H](CO)[C@@H](O[C@@H]7O[C@@H](C)[C@H](O)[C@@H](O)[C@H]7O)[C@H](O)[C@H]6O[C@@H]6O[C@@H](C)[C@H](O)[C@@H](O)[C@H]6O)CC[C@]5(C)[C@H]4CC[C@]3(C)[C@H]1[C@@H]2C` [DIOSCIN], the pIC50 is 6.57 in the test with BGC-823; 6.24 in the test on A2780; 6.35 in the test on KETR3; 6.03 in the test with Bel-7402 [1]; 6.45 in the test with HCT-8; 6.34 in the test with A549. The same compound had a pIC50 in the test with MCF7 [2] of 6.06.
For `COc1ccc(C(=O)O[C@H]2[C@H](O[C@@H]3[C@@H](OC(C)=O)[C@H](O[C@H]4C[C@H]5[C@@H]6CCC7C[C@@H](O)CC[C@]7(C)[C@H]6CC[C@]5(C)[C@@]4(O)[C@H](C)C(=O)CCC(C)C)OC[C@@H]3O)OC[C@@H](O)[C@@H]2O)cc1` (stereo partly specified), the pIC50 is 7.54 in the test on MCF7 [3], 6.15 in the test on AGS and 7.60 in the test with Bel-7402 [4].
Turning to `COc1ccc(C(=O)O[C@H]2[C@H](O[C@@H]3[C@@H](OC(C)=O)[C@H](O[C@@H]4CC([C@H](C)C(=O)CC[C@@H](C)CO)[C@@]5(C)CC[C@H]6[C@@H](CC[C@H]7C[C@@H](O)CC[C@@]76C)[C@H]45)OC[C@@H]3O)OC[C@@H](O)[C@@H]2O)cc1` (stereo partly specified), the pIC50 was 6.55 with BGC-823; 6.26 in the test on A2780; 7.00 with KETR3; 6.28 with Bel-7402 [1]; 7.00 in the test with HCT-8; 6.07 in the test on A549. Further, in the test with MCF7 [2], the pIC50 is 6.30.
Take `C[C@@H](CO)CCC(=O)[C@@H](C)C1C[C@@H](O[C@@H]2O[C@H](CO)[C@@H](O)[C@H](O)[C@H]2O[C@@H]2O[C@@H](C)[C@H](O)[C@@H](O)[C@H]2O)[C@H]2[C@@H]3CC[C@H]4C[C@@H](O)CC[C@]4(C)[C@H]3CC[C@]12C` (stereo partly specified): the pIC50 in the test on BGC-823, in the test with A2780, in the test with KETR3, in the test on Bel-7402 [1], in the test with HCT-8 and in the test with A549 was less than 5.00 each time. This compound also gave a pIC50 in the test with MCF7 [2] of less than 5.00.
Regarding `COc1ccc(C(=O)O[C@H]2[C@H](O[C@H]3CO[C@@H](O[C@@H]4CC([C@H](C)C(=O)CC[C@@H](C)CO)[C@@]5(C)CC[C@H]6[C@@H](CC[C@H]7C[C@@H](O)CC[C@@]76C)[C@H]45)[C@H](OC(C)=O)[C@H]3O)OC[C@@H](O)[C@@H]2O)cc1` (stereo partly specified), the pIC50 in the test with BGC-823, with A2780, in the test with KETR3, in the test with Bel-7402 [1], with HCT-8 and in the test on A549 was less than 5.00 throughout. In the test with MCF7 [2], this compound showed a pIC50 of less than 5.00.
As for `C[C@@H](CO)CCC(=O)[C@@H](C)C1C[C@@H](O[C@H]2O[C@H](CO)[C@@H](O)[C@H](O)[C@H]2O[C@@H]2O[C@@H](C)[C@H](O)[C@@H](O)[C@H]2O)[C@H]2[C@@H]3CC[C@H]4C[C@@H](O)CC[C@]4(C)[C@H]3CC[C@]12C` (stereo partly specified), the pIC50 in the test on BGC-823, with A2780, with KETR3, with Bel-7402 [1], with HCT-8 and in the test on A549 was less than 5.00 in each case. In the test with MCF7 [2], this compound had a pIC50 of less than 5.00.
For `COc1ccc(C(=O)O[C@H]2[C@H](O[C@H]3CO[C@@H](O[C@H]4CC([C@H](C)C(=O)CC[C@@H](C)CO)[C@@]5(C)CC[C@H]6[C@@H](CC[C@H]7C[C@@H](O)CC[C@@]76C)[C@H]45)[C@H](OC(C)=O)[C@H]3O)OC[C@@H](O)[C@@H]2O)cc1` (stereo partly specified), the pIC50 with BGC-823, in the test with A2780, in the test with KETR3, in the test with Bel-7402 [1], with HCT-8 and with A549 was less than 5.00 in each case. The compound also had a pIC50 in the test with MCF7 [2] of less than 5.00.
For `C[C@@H](CO)CCC(=O)[C@@H](C)C1C[C@H](O[C@@H]2O[C@H](CO)[C@@H](O)[C@H](O)[C@H]2O[C@@H]2O[C@@H](C)[C@H](O)[C@@H](O)[C@H]2O)[C@H]2[C@@H]3CC[C@H]4C[C@@H](O)CC[C@]4(C)[C@H]3CC[C@]12C` (stereo partly specified), the pIC50 in the test with BGC-823, in the test on A2780, in the test on KETR3, in the test on Bel-7402 [1], with HCT-8 and with A549 was less than 5.00 each time. Further, the negative-log IC50 (pIC50) in the test with MCF7 [2] is less than 5.00.
In the case of `C[C@@H](CO)CCC(=O)[C@@H](C)C1C[C@H](O[C@H]2O[C@H](CO)[C@@H](O)[C@H](O)[C@H]2O[C@@H]2O[C@@H](C)[C@H](O)[C@@H](O)[C@H]2O)[C@H]2[C@@H]3CC[C@H]4C[C@@H](O)CC[C@]4(C)[C@H]3CC[C@]12C` (stereo partly specified), the pIC50 with BGC-823, in the test with A2780, in the test with KETR3, in the test on Bel-7402 [1], in the test with HCT-8 and in the test with A549 was less than 5.00 in each case. This compound showed a pIC50 in the test with MCF7 [2] of less than 5.00.

One may read the pIC50 as the IC50 on a negative log10 scale, so that one unit is a factor of ten. Read a high pIC50 as a small IC50.
